Experimental data published in ChEMBL document CHEMBL1201862, “PubChem BioAssay data set” (2004).
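Tested at 5 concentrations; 48 h exposure; 96-well plates; endpoints linearly interpolated, else capped at highest concentration. At the GI50, growth is halved.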 Activity calls are given as the source filed them. Cut-off read from the data, not from the text of the source: active = GI50 up to about 1.1 µM and inactive = higher.

Key:
Experiment in all cases: NCI-60 cell line screen, 48 h
[1] = test system: A498
[2] = test system: A549
[3] = test system: HCT-116
[4] = test system: HOP-92
[5] = test system: K562
[6] = test system: MDA-MB-435
[7] = test system: SF-539
[8] = test system: SK-MEL-5
[9] = test system: UACC-257
[10] = test system: 786-0
[11] = test system: CAKI-1
[12] = test system: CCRF-CEM
[13] = test system: COLO 205
[14] = test system: EKVX
[15] = test system: HCT-15
[16] = test system: HL-60
[17] = test system: HOP-62
[18] = test system: HT-29
[19] = test system: IGROV-1
[20] = test system: LOX IMVI
[21] = test system: MDA-MB-231
[22] = test system: MDA-N
[23] = test system: NCI-H460
[24] = test system: NCI-H522
[25] = test system: NCI/ADR-RES
[26] = test system: OVCAR-4
[27] = test system: PC-3
[28] = test system: RPMI-8226
[29] = test system: SF-268
[30] = test system: SK-MEL-2
[31] = test system: SN12C
[32] = test system: SNB-19
[33] = test system: SR
[34] = test system: SW-620
[35] = test system: T47D
[36] = test system: TK-10
[37] = test system: U-251
[38] = test system: ACHN
[39] = test system: DU-145
[40] = test system: HCC 2998
[41] = test system: Hs-578T
[42] = test system: KM12
[43] = test system: M14
[44] = test system: MCF7
[45] = test system: Malme-3M
[46] = test system: NCI-H226
[47] = test system: NCI-H23
[48] = test system: OVCAR-3
[49] = test system: OVCAR-5
[50] = test system: OVCAR-8
[51] = test system: SF-295
[52] = test system: SK-MEL-28
[53] = test system: SK-OV-3
[54] = test system: SNB-75
[55] = test system: UACC-62
[56] = test system: MOLT-4
[57] = test system: RXF 393
[58] = test system: UO-31

## O=C1c2c(O)ccc(O)c2C(=O)c2c(NCCNCCO)ccc(NCCNCCO)c21 [MITOXANTRONE]
[1]
  GI50: 0.112 µM (active)
[2]
  GI50: < 0.01 µM (active)
[3]
  GI50: 0.0373 µM (active)
[4]
  GI50: 0.0355 µM (active)
[5]
  GI50: 0.0741 µM (active)
[6]
  GI50: 0.259 µM (active)
[7]
  GI50: < 0.01 µM (active)
[8]
  GI50: 0.0719 µM (active)
[9]
  GI50: 0.995 µM (active)

## COc1cc([C@@H]2c3cc4c(cc3[C@@H](NC(=O)NO)[C@H]3COC(=O)[C@H]23)OCO4)cc(OC)c1O
[10]
  GI50: 4.98 µM (inactive)
[1]
  GI50: 14 µM (inactive)
[11]
  GI50: 6.31 µM (inactive)
[12]
  GI50: 12.7 µM (inactive)
[13]
  GI50: 5.3 µM (inactive)
[14]
  GI50: 7.45 µM (inactive)
[3]
  GI50: 4.84 µM (inactive)
[15]
  GI50: 3.8 µM
[16]
  GI50: 3.72 µM (inactive)
[17]
  GI50: 5.37 µM (inactive)
[4]
  GI50: > 100 µM (inactive)
[18]
  GI50: 5.19 µM (inactive)
[19]
  GI50: 3.25 µM (inactive)
[5]
  GI50: 3.1 µM (inactive)
[20]
  GI50: 4.58 µM (inactive)
[21]
  GI50: 4.42 µM (inactive)
[6]
  GI50: 2.29 µM (inactive)
[22]
  GI50: 2.15 µM (inactive)
[23]
  GI50: 4.42 µM (inactive)
[24]
  GI50: > 100 µM (inactive)
[25]
  GI50: 12.7 µM (inactive)
[26]
  GI50: > 100 µM (inactive)
[27]
  GI50: 4.91 µM (inactive)
[28]
  GI50: 4.03 µM (inactive)
[29]
  GI50: 61.5 µM (inactive)
[7]
  GI50: 3.6 µM (inactive)
[30]
  GI50: 4.38 µM (inactive)
[31]
  GI50: 4.71 µM (inactive)
[32]
  GI50: > 100 µM (inactive)
[33]
  GI50: 9.12 µM (inactive)
[34]
  GI50: 6.19 µM (inactive)
[35]
  GI50: > 100 µM (inactive)
[36]
  GI50: > 100 µM (inactive)
[37]
  GI50: 6.9 µM (inactive)
[9]
  GI50: > 100 µM (inactive)

## CC1=CC(c2ccccc2)OP1(=O)c1ccccc1 (stereo not drawn)
[10]
  GI50: > 100 µM (inactive)
[1]
  GI50: > 100 µM (inactive)
[2]
  GI50: > 100 µM (inactive)
[38]
  GI50: > 100 µM (inactive)
[11]
  GI50: > 100 µM (inactive)
[13]
  GI50: > 100 µM (inactive)
[39]
  GI50: > 100 µM (inactive)
[14]
  GI50: > 100 µM (inactive)
[40]
  GI50: > 100 µM (inactive)
[3]
  GI50: > 100 µM (inactive)
[15]
  GI50: > 100 µM
[16]
  GI50: > 100 µM (inactive)
[17]
  GI50: > 100 µM (inactive)
[4]
  GI50: > 100 µM (inactive)
[18]
  GI50: > 100 µM (inactive)
[41]
  GI50: > 100 µM (inactive)
[19]
  GI50: > 100 µM (inactive)
[5]
  GI50: > 100 µM (inactive)
[42]
  GI50: > 100 µM (inactive)
[20]
  GI50: > 100 µM (inactive)
[43]
  GI50: > 100 µM (inactive)
[44]
  GI50: > 100 µM (inactive)
[6]
  GI50: > 100 µM (inactive)
[22]
  GI50: > 100 µM (inactive)
[45]
  GI50: > 100 µM (inactive)
[46]
  GI50: > 100 µM (inactive)
[47]
  GI50: > 100 µM (inactive)
[23]
  GI50: > 100 µM (inactive)
[24]
  GI50: > 100 µM (inactive)
[25]
  GI50: > 100 µM (inactive)
[48]
  GI50: > 100 µM (inactive)
[26]
  GI50: > 100 µM (inactive)
[49]
  GI50: > 100 µM (inactive)
[50]
  GI50: > 100 µM (inactive)
[27]
  GI50: > 100 µM (inactive)
[29]
  GI50: > 100 µM (inactive)
[51]
  GI50: > 100 µM (inactive)
[7]
  GI50: > 100 µM (inactive)
[52]
  GI50: > 100 µM (inactive)
[30]
  GI50: > 100 µM (inactive)
[8]
  GI50: > 100 µM (inactive)
[53]
  GI50: > 100 µM (inactive)
[31]
  GI50: > 100 µM (inactive)
[32]
  GI50: > 100 µM (inactive)
[54]
  GI50: > 100 µM (inactive)
[33]
  GI50: > 100 µM (inactive)
[34]
  GI50: > 100 µM (inactive)
[35]
  GI50: > 100 µM (inactive)
[36]
  GI50: > 100 µM (inactive)
[37]
  GI50: > 100 µM (inactive)
[9]
  GI50: > 100 µM (inactive)
[55]
  GI50: > 100 µM (inactive)

## CN(C)c1ccc(NN=C2SC(=N\c3ccccc3)/C(=N/c3ccccc3)S2)cc1
[10]
  GI50: > 100 µM (inactive)
[1]
  GI50: 50 µM (inactive)
[2]
  GI50: 66.2 µM (inactive)
[38]
  GI50: > 100 µM (inactive)
[11]
  GI50: 76.4 µM (inactive)
[12]
  GI50: 5.2 µM (inactive)
[13]
  GI50: 37.4 µM (inactive)
[39]
  GI50: > 100 µM (inactive)
[14]
  GI50: 12.8 µM (inactive)
[40]
  GI50: 26.6 µM (inactive)
[3]
  GI50: 14.9 µM (inactive)
[15]
  GI50: 9.31 µM
[16]
  GI50: 2.97 µM (inactive)
[17]
  GI50: > 100 µM (inactive)
[4]
  GI50: 22.8 µM (inactive)
[18]
  GI50: 15.5 µM (inactive)
[41]
  GI50: 57.4 µM (inactive)
[19]
  GI50: > 100 µM (inactive)
[42]
  GI50: 18.2 µM (inactive)
[20]
  GI50: 22.1 µM (inactive)
[6]
  GI50: 20.4 µM (inactive)
[22]
  GI50: 20.3 µM (inactive)
[56]
  GI50: 47.2 µM (inactive)
[45]
  GI50: 2.38 µM (inactive)
[46]
  GI50: > 100 µM (inactive)
[47]
  GI50: 12.1 µM (inactive)
[23]
  GI50: 13 µM (inactive)
[24]
  GI50: 6.03 µM (inactive)
[25]
  GI50: 67.8 µM (inactive)
[26]
  GI50: 30.2 µM (inactive)
[49]
  GI50: 70.5 µM (inactive)
[50]
  GI50: 64.9 µM (inactive)
[27]
  GI50: > 100 µM (inactive)
[28]
  GI50: > 100 µM (inactive)
[57]
  GI50: 10 µM (inactive)
[29]
  GI50: > 100 µM (inactive)
[51]
  GI50: > 100 µM (inactive)
[7]
  GI50: 53.7 µM (inactive)
[52]
  GI50: > 100 µM (inactive)
[30]
  GI50: 13.6 µM (inactive)
[8]
  GI50: 19.8 µM (inactive)
[53]
  GI50: > 100 µM (inactive)
[31]
  GI50: 43.4 µM (inactive)
[32]
  GI50: > 100 µM (inactive)
[54]
  GI50: 27.3 µM (inactive)
[34]
  GI50: 53 µM (inactive)
[35]
  GI50: 12.3 µM (inactive)
[36]
  GI50: > 100 µM (inactive)
[37]
  GI50: > 100 µM (inactive)
[9]
  GI50: 8.2 µM (inactive)
[55]
  GI50: 9.38 µM (inactive)
[58]
  GI50: 52.4 µM (inactive)
